The values below come from patent publication US10435399B2, “HDAC6 inhibitory heterocyclic compound” (TAKEDA PHARMACEUTICAL COMPANY LIMITED, priority 2017, dated 2019).

This assay concerns the target T1, HDAC6 enzyme (Homo sapiens, UniProt Q9UBN7).
T1 construct: transducing full length HDAC6 gene into Sf-9 insect cells; GST; purchased SignalChem; host or cells: Sf-9 insect cells
T1 sequence (Q9UBN7 1-1215): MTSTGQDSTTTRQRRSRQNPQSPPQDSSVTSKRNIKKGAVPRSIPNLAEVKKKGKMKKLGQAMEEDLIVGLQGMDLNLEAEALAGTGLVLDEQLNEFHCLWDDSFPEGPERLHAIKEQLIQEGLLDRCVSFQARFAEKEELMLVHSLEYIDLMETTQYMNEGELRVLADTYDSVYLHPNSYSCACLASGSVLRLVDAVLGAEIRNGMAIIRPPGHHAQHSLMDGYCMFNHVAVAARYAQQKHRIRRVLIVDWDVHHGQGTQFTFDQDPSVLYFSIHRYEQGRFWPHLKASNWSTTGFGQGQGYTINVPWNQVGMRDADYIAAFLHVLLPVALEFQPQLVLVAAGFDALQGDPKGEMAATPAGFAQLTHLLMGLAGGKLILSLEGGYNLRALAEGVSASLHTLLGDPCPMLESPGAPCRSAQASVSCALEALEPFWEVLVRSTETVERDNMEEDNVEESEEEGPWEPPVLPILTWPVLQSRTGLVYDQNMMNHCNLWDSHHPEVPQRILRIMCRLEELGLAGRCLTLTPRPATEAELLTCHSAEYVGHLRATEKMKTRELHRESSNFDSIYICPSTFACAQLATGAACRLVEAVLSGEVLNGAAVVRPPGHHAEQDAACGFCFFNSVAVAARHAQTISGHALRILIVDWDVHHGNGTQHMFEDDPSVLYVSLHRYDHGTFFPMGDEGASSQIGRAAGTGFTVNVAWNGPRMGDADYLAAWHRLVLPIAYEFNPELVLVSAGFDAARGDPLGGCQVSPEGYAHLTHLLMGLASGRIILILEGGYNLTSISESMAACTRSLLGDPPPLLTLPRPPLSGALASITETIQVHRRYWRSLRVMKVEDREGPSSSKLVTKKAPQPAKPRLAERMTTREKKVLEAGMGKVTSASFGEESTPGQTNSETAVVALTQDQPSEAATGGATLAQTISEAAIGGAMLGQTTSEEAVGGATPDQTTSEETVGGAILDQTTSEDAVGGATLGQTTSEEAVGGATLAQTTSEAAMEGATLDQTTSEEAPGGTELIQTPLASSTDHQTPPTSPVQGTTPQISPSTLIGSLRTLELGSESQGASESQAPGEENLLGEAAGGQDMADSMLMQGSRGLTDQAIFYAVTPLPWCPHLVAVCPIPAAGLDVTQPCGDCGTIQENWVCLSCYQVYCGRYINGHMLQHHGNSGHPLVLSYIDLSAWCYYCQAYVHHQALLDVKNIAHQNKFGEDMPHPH
Description: HDAC6 enzyme inhibitory activity (HDAC-Glo I/II Assay kit). The format is biochemical. As to conditions: 10 μM; wells without enzyme = 100% inhibition; read-out: HDAC6 inhibitory rate (%) (10 μM). In a few lines:
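Full-length human HDAC6 (GST-purified, Sf-9 expressed) preincubated with compound 60 min at room temperature in Tris-HCl pH 7.5 buffer with MgCl2, KCl, NaCl, glutathione, Tween-20. HDAC-Glo I/II substrate-developer then added, 20 min room temperature, luminescence read. Inhibition relative to no-enzyme wells as 100%.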
As for `O=C1CCCCN1[C@@H]1CCCC[C@H]1N1Cc2ccc(-c3nnc(C(F)F)o3)cc2C1=O` [Example 20, 6-(5-(difluoromethyl)-1,3,4-oxadiazol-2-yl)-2-((1R,2R)-2-(2-oxopiperidin-1-yl)cyclohexyl)isoindolin-1-one], the inhibition at 10 µM stood at 100%.
Then `O=C1OCCCN1[C@@H]1CCCC[C@H]1N1Cc2ccc(-c3nnc(C(F)F)o3)cc2C1=O` [Example 21, 6-(5-(difluoromethyl)-1,3,4-oxadiazol-2-yl)-2-((1R,2R)-2-(2-oxo-1,3-oxazinan-3-yl)cyclohexyl)isoindolin-1-one], with 100%; and `O=C1OCCN1[C@@H]1CCCC[C@H]1N1Cc2ccc(-c3nnc(C(F)F)o3)cc2C1=O` [Example 22, 6-(5-(difluoromethyl)-1,3,4-oxadiazol-2-yl)-2-((1R,2R)-2-(2-oxo-1,3-oxazolidin-3-yl)cyclohexyl)isoindolin-1-one], with 98%.
Consider `O=C1c2cc(-c3nnc(C(F)F)o3)ccc2CN1[C@@H]1CCCC[C@H]1NC(=O)C1(C(F)F)CC1` [Example 23, 1-(difluoromethyl)-N-((1R,2R)-2-(6-(5-(difluoromethyl)-1,3,4-oxadiazol-2-yl)-1-oxo-1,3-dihydro-2H-isoindol-2-yl)cyclohexyl)cyclopropanecarboxamide], for which the inhibition at 10 µM was 99%.
Turning to `O=C1c2cc(-c3nnc(C(F)F)o3)ccc2CN1[C@@H]1CCCC[C@H]1NC(=O)C1(C(F)(F)F)CCC1` [Example 24, N-((1R,2R)-2-(6-(5-(difluoromethyl)-1,3,4-oxadiazol-2-yl)-1-oxo-1,3-dihydro-2H-isoindol-2-yl)cyclohexyl)-1-(trifluoromethyl)cyclobutanecarboxamide], the inhibition at 10 µM was found to be 98%.
`COC1(C(=O)N[C@@H]2CCCC[C@H]2N2Cc3ccc(-c4nnc(C(F)F)o4)cc3C2=O)CCC1` [Example 25, N-((1R,2R)-2-(6-(5-(difluoromethyl)-1,3,4-oxadiazol-2-yl)-1-oxo-1,3-dihydro-2H-isoindol-2-yl)cyclohexyl)-1-methoxycyclobutanecarboxamide]: the inhibition at 10 µM is 99%.
Consider `O=C(CC1(O)CCCC1)N[C@@H]1CCCC[C@H]1N1Cc2ccc(-c3nnc(C(F)F)o3)cc2C1=O` [Example 26, N-((1R,2R)-2-(6-(5-(difluoromethyl)-1,3,4-oxadiazol-2-yl)-1-oxo-1,3-dihydro-2H-isoindol-2-yl)cyclohexyl)-2-(1-hydroxycyclopentyl)acetamide], for which the inhibition at 10 µM came out at 98%.
With `O=C(N[C@@H]1CCCC[C@H]1N1Cc2ccc(-c3nnc(C(F)F)o3)cc2C1=O)c1cocn1` [Example 27, N-((1R,2R)-2-(6-(5-(difluoromethyl)-1,3,4-oxadiazol-2-yl)-1-oxo-1,3-dihydro-2H-isoindol-2-yl)cyclohexyl)-1,3-oxazole-4-carboxamide] the figure was 100%; with `O=C(N[C@@H]1CCCC[C@H]1N1Cc2ccc(-c3nnc(C(F)F)o3)cc2C1=O)C(F)F` [Example 28, N-((1R,2R)-2-(6-(5-(difluoromethyl)-1,3,4-oxadiazol-2-yl)-1-oxo-1,3-dihydro-2H-isoindol-2-yl)cyclohexyl)-2,2-difluoroacetamide], 100%.
With `O=C1c2cc(-c3nnc(C(F)F)o3)ccc2CN1[C@@H]1CCCC[C@H]1NC(=O)C(F)(F)C(F)(F)F` [Example 29, N-((1R,2R)-2-(6-(5-(difluoromethyl)-1,3,4-oxadiazol-2-yl)-1-oxo-1,3-dihydro-2H-isoindol-2-yl)cyclohexyl)-2,2,3,3,3-pentafluoropropanamide] the figure was 101%; with `O=C1COCCN1[C@@H]1CCCC[C@H]1N1Cc2ccc(-c3nnc(C(F)F)o3)cc2C1=O` [Example 30, 6-(5-(difluoromethyl)-1,3,4-oxadiazol-2-yl)-2-((1R,2R)-2-(3-oxomorpholin-4-yl)cyclohexyl) isoindolin-1-one], 97%; with `O=C1NCCCN1[C@@H]1CCCC[C@H]1N1Cc2ccc(-c3nnc(C(F)F)o3)cc2C1=O` [Example 31, 6-(5-(difluoromethyl)-1,3,4-oxadiazol-2-yl)-2-((1R,2R)-2-(2-oxotetrahydropyrimidin-1(2H)-yl)cyclohexyl) isoindolin-1-one], 97%.
In the case of `O=C1c2cc(-c3nnc(C(F)F)o3)ccc2CN1[C@@H]1CCCC[C@H]1NC(=O)C1(C(F)(F)F)CC1` [Example 32, N-((1R,2R)-2-(6-(5-(difluoromethyl)-1,3,4-oxadiazol-2-yl)-1-oxo-1,3-dihydro-2H-isoindol-2-yl)cyclohexyl)-1-(trifluoromethyl)cyclopropanecarboxamide], the inhibition at 10 µM is 101%.
Then `O=C(N[C@@H]1CCCC[C@H]1N1Cc2ccc(-c3nnc(C(F)F)o3)cc2C1=O)C1CC(F)(F)C1` [Example 33, N-((1R,2R)-2-(6-(5-(difluoromethyl)-1,3,4-oxadiazol-2-yl)-1-oxo-1,3-dihydro-2H-isoindol-2-yl)cyclohexyl)-3,3-difluorocyclobutanecarboxamide], with 97%; and `CC(C)(C)OC(=O)N1CCCC[C@@H]1CN1Cc2ccc(-c3nnc(C(F)F)o3)cc2C1=O` [Example 34, tert-butyl (2R)-2-((6-(5-(difluoromethyl)-1,3,4-oxadiazol-2-yl)-1-oxo-1,3-dihydro-2H-isoindol-2-yl)methyl)piperidine-1-carboxylate], with 98%.
Take `CC(C)(C)OC(=O)N1CCOC[C@@H]1CN1Cc2ccc(-c3nnc(C(F)F)o3)cc2C1=O` [Example 35, tert-butyl (3S)-3-((6-(5-(difluoromethyl)-1,3,4-oxadiazol-2-yl)-1-oxo-1,3-dihydro-2H-isoindol-2-yl)methyl)morpholine-4-carboxylate]: the inhibition at 10 µM worked out at 97%.
With `O=C1c2cc(-c3nnc(C(F)F)o3)ccc2CN1C[C@H]1COCCN1` [Example 36, 6-(5-(difluoromethyl)-1,3,4-oxadiazol-2-yl)-2-((3S)-morpholin-3-ylmethyl)isoindolin-1-one] the figure was 85%.
With `O=C1CCCN1c1ccccc1N1Cc2ccc(-c3nnc(C(F)F)o3)cc2C1=O` [Example 37, 6-(5-(difluoromethyl)-1,3,4-oxadiazol-2-yl)-2-(2-(2-oxopyrrolidin-1-yl)phenyl)isoindolin-1-one] the figure was 99%.
In the case of `N[C@@H]1CCCC[C@H]1N1Cc2ccc(-c3nnc(C(F)F)o3)cc2C1=O` [Example 38, 2-((1R,2R)-2-aminocyclohexyl)-6-(5-(difluoromethyl)-1,3,4-oxadiazol-2-yl)isoindolin-1-one], the inhibition at 10 µM was determined as 91%.
With `CCCCC(=O)N[C@@H]1CCCC[C@H]1N1Cc2ccc(-c3nnc(C(F)F)o3)cc2C1=O` [Example 39, N-((1R,2R)-2-(6-(5-(difluoromethyl)-1,3,4-oxadiazol-2-yl)-1-oxo-1,3-dihydro-2H-isoindol-2-yl)cyclohexyl)pentanamide] the figure was 96%.
With `CC(F)(F)C(=O)N[C@@H]1CCCC[C@H]1N1Cc2ccc(-c3nnc(C(F)F)o3)cc2C1=O` [Example 40, N-((1R,2R)-2-(6-(5-(difluoromethyl)-1,3,4-oxadiazol-2-yl)-1-oxo-1,3-dihydro-2H-isoindol-2-yl)cyclohexyl)-2,2-difluoropropanamide] the figure was 100%.
With `O=C1c2cc(-c3nnc(C(F)F)o3)ccc2CN1C[C@H]1CCCCN1S(=O)(=O)C1CC1` [Example 41, 2-(((2R)-1-(cyclopropylsulfonyl)piperidin-2-yl)methyl)-6-(5-(difluoromethyl)-1,3,4-oxadiazol-2-yl)isoindolin-1-one] the figure was 98%.
In the case of `O=C1c2cc(-c3nnc(C(F)F)o3)ccc2CN1C[C@H]1CCCCN1C(=O)C1CC1` [Example 42, 2-(((2R)-1-(cyclopropylcarbonyl)piperidin-2-yl)methyl)-6-(5-(difluoromethyl)-1,3,4-oxadiazol-2-yl)isoindolin-1-one], the inhibition at 10 µM amounted to 98%.
